The subject of this data set is stable CHO cells. The experiment in a line: Cell viability and cell counts of stable CHO cells cultured with capping reagent in the medium. The format is cell-based. Particulars: 0.5 mM DTNB in CD-CHO medium, 72 hrs. As to the method: Ellman's reagent, 5,5′-dithiobis-(2-nitrobeoic acid) (DTNB) was examined as a capping agent to add thionitrobenzoate (TNB). (DTNB is commonly used for assaying free thiol content in proteins. This reagent cannot disrupt disulfide bond but can react with free Cys. It has been used to treat partially-reduced antibody materials to generate four free Cys for drug conjugation.) A CHO cell line stably expressing the cysteine mutant antibody was grown to 4×10e6/ml in CD-CHO medium, then switched to fresh CD-CHO medium, fresh CD-CHO medium with 0.5 mM DTNB, or the triple-low medium as a control. Cells were cultured in these conditions for 72 hrs, cell viability was measured and conditioned medium was harvested. […] Protein expression in the DTNB-containing medium was also 5-fold lower than those in CD-CHO. Antibody purification from ProA column and protein migration in SDS-PAGE from all three culture conditions materials were nearly identical, as shown in FIG. 5A. All three samples in SEC analysis show monomer species, with very little aggregation.
19.8 mM MTFB, dissolved in DMSO, was added to 50 ml cell culture at a final concentration of 0.25 mM for 24 hr. Cell viability was measured and conditioned medium was harvested. […] Antibody HAB08L443C at such condition was subsequently purified by a 1 ml-ProA column (FIG. 12B). […]

In patent US11980669B2, “Capped and uncapped antibody cysteines, and their use in antibody-drug conjugation” (PFIZER INC., priority 2015, dated 2024) one finds Cell viability data, which are given here for one compound.

Molecules are shown by their SMILES.

On to `O=C(O)c1cc(SSc2ccc([N+](=O)[O-])c(C(=O)O)c2)ccc1[N+](=O)[O-]` [DTNB, 5,5′-dithiobis-(2-nitrobeoic acid)], for which the Cell viability was determined as 40%.
